This is an account of results in patent publication US20180208605A1, “Substituted Aza Compounds as IRAK-4 Inhibitors” (AURIGENE DISCOVERY TECHNOLOGIES LIMITED, priority 2015, published 2018).

Counter-ions that a name gives are not always drawn.

For this assay, the target named is T1, recombinant IRAK-4 kinase (Homo sapiens, UniProt Q9NWZ3).
T1 construct: purchased Millipore, USA
T1 sequence (Q9NWZ3 1-460): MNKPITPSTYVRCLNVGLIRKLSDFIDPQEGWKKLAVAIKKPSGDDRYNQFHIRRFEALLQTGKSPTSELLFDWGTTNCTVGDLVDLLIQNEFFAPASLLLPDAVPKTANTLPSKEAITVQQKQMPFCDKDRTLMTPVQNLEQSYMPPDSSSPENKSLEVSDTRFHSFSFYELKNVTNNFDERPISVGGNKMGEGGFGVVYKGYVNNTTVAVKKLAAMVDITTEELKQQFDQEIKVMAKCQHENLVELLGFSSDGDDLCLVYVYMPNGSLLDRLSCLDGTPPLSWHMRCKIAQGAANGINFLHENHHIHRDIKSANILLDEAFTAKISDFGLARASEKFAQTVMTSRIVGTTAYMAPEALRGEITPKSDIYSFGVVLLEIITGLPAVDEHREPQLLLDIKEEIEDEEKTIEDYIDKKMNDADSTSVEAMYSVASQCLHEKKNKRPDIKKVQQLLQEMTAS
Description: IRAK-4 Biochemical Assay (TR-FRET, percent inhibition). The settings on record: TR-FRET, 20 μM ATP, 100 nM Biotin Histone H3; for inhibition at 0.1 µM: read-out: % inhibition of IRAK-4 @0.1 μM, compound at 0.1 μM; for inhibition at 1 µM: read-out: % inhibition of IRAK-4 @ 1 μM, compound at 1 μM. The protocol: Compounds were tested for their potential to inhibit IRAK-4 enzyme in a TR-FRET assay using recombinant IRAK-4 kinase from Millipore, USA. The assay buffer was 50 mM Tris-HCl pH 7.5, 20 mM MgCl2, 1 mM EGTA, 2 mM DTT, 3 mM MnCl2 and 0.01% Tween 20.5 ng of IRAK-4 kinase was used for the assay. After pre-incubation of enzyme with test compound for 30 minutes at room temperature, a substrate mixture containing 100 nM Biotin Histone H3 (Millipore, USA) and 20 μM ATP (Sigma, USA) was added and the reaction was incubated for 30 min. Post incubation, the reaction was stopped by the addition of stop mix containing 40 mM EDTA, 1 nM of Europium-Anti-Phospho-Histone H3 (Ser10) antibody (Perkin Elmer, USA) and 20 nM SureLight Allophycocyanin-Streptavidin (Perkin Elmer, USA). The fluorescence emission at 615 nm and 665 nm were measured at an excitation of 340 nm and the percent inhibition was estimated from the ratio of the fluorescence intensities [(F665/F615)×10000].
In general terms: Time-resolved FRET reads energy transfer from a long-lived donor to a nearby acceptor.

For orientation: inhibition means the share of the control response that was lost under treatment. For the compound `NCC(=O)O[C@H]1CCN(c2nccc(C(=O)Nc3cc4sc(N5CCOCC5)nc4nc3N3CCCCC3)n2)C1` [Example 64, (S)-1-(4-((2-morpholino-5-(piperidin-1-yl)thiazolo[4,5-b]pyridin-6-yl)carbamoyl)pyrimidin-2-yl)pyrrolidin-3-yl glycinate], the inhibition at 0.1 µM came out at 74% and the inhibition at 1 µM is 92%.

Take `Nc1cccc(-c2nc(C(=O)Nc3cc4oc(N5CCOCC5)nc4nc3N3CCCCC3)co2)n1` [Example 93, 2-(6-aminopyridin-2-yl)-N-(2-morpholino-5-(piperidin-1-yl)oxazolo[4,5-b]pyridin-6-yl)oxazole-4-carboxamide]: the inhibition at 0.1 µM turned out to be 87% and the inhibition at 1 µM came to 93%.

As for `Nc1ccc(-c2cccc(C(=O)Nc3cc4sc(N5CCOCC5)nc4nc3N3CCCCC3)n2)cn1` [Example 75, 6′-amino-N-(2-morpholino-5-(piperidin-1-yl)thiazolo[4,5-b]pyridin-6-yl)-[2,3′-bipyridine]-6-carboxamide], the inhibition at 0.1 µM came out at 98% and the inhibition at 1 µM is 78%.

Regarding `NC1CCCN(c2ccn3ncc(C(=O)Nc4cc5sc(N6CCOCC6)nc5nc4C4CC4)c3n2)C1` (centres unmarked) [Example 21, 5-(3-aminopiperidin-1-yl)-N-(5-cyclopropyl-2-morpholinothiazolo[4,5-b]pyridin-6-yl)pyrazolo[1,5-a]pyrimidine-3-carboxamide], the inhibition at 0.1 µM was 97% and the inhibition at 1 µM turned out to be 98%.

As for `O=C(Nc1cc2sc(N3CCOCC3)nc2nc1C1CC1)c1cnn2ccc(N3CCC[C@H](O)C3)nc12` [Example 100, (S)-N-(5-cyclopropyl-2-morpholinothiazolo[4,5-b]pyridin-6-yl)-5-(3-hydroxypiperidin-1-yl)pyrazolo[1,5-a]pyrimidine-3-carboxamide], the inhibition at 0.1 µM stood at 96% and the inhibition at 1 µM stood at 99%.

Consider `Cc1cc(-c2ccc(C(=O)Nc3cc4sc(N5CCOCC5)nc4nc3N3CCC(O)(CO)CC3)o2)ccn1` [Example 2, N-(5-(4-hydroxy-4-(hydroxymethyl)piperidin-1-yl)-2-morpholinothiazolo[4,5-b]pyridin-6-yl)-5-(2-methylpyridin-4-yl)furan-2-carboxamide hydrochloride], for which the inhibition at 0.1 µM was determined as 98% and the inhibition at 1 µM worked out at 99%.

Take `Cc1cc(-c2nc(C(=O)Nc3cc4sc(N5CCOCC5)nc4nc3OC3CCC(N4CCOCC4)CC3)co2)ccn1` (centres unmarked) [Example 6, 2-(2-methylpyridin-4-yl)-N-(2-morpholino-5-(((1r,4r)-4-morpholinocyclohexyl)oxy)thiazolo[4,5-b]pyridin-6-yl)oxazole-4-carboxamide hydrochloride]: the inhibition at 0.1 µM stood at 100% and the inhibition at 1 µM came out at 100%.

For `O=C(Nc1cc2sc(N3CCOCC3)nc2nc1N1CCCCC1)c1cccc(N2CCC(C(=O)O)CC2)n1` [Example 80, 1-(6-((2-morpholino-5-(piperidin-1-yl)thiazolo[4,5-b]pyridin-6-yl)carbamoyl)pyridin-2-yl)piperidine-4-carboxylic acid], the “% inhibition of IRAK-4 @0.1 μM” value (compound at 0.1 μM) is given as 96%. For the setting “compound at 1 μM”, the “% inhibition of IRAK-4 @ 1 μM” value was 99%.

On to `O=C(Nc1cc2sc(N3CCOCC3)nc2nc1N1CCCCC1)c1cccc(N2CC(C(=O)O)NC2=O)n1` (centres unmarked) [Example 49, 1-(6-((2-morpholino-5-(piperidin-1-yl)thiazolo[4,5-b]pyridin-6-yl)carbamoyl)pyridin-2-yl)-2-oxoimidazolidine-4-carboxylic acid], for which the inhibition at 0.1 µM is 79% and the inhibition at 1 µM came to 96%.

`CCOC(=O)O[C@H]1CCN(c2cccc(C(=O)Nc3cc4sc(N5CCOCC5)nc4nc3N3CCCCC3)n2)C1` [Example 58, (S)-ethyl (1-(6-((2-morpholino-5-(piperidin-1-yl)thiazolo[4,5-b]pyridin-6-yl)carbamoyl)pyridin-2-yl)pyrrolidin-3-yl)carbonate]: the inhibition at 0.1 µM was 71% and the inhibition at 1 µM is 96%.

As to `O=C(Nc1cc2sc(N3CCOCC3)nc2nc1N1CCCCC1)c1cc(N2CC[C@H](O)C2)ccn1` [Example 68, (S)-4-(3-hydroxypyrrolidin-1-yl)-N-(2-morpholino-5-(piperidin-1-yl)thiazolo[4,5-b]pyridin-6-yl)picolinamide], the inhibition at 0.1 µM was 23% and the inhibition at 1 µM came out at 38%.

As to `COc1ccc(-c2nc(C(=O)Nc3cc4sc(N5CCOCC5)nc4nc3N3CCCCC3)co2)nc1` [Example 74, 2-(5-methoxypyridin-2-yl)-N-(2-morpholino-5-(piperidin-1-yl)thiazolo[4,5-b]pyridin-6-yl)oxazole-4-carboxamide], the inhibition at 0.1 µM was 89% and the inhibition at 1 µM came to 95%.

With `O=C(Nc1cc2sc(N3CCOCC3)nc2nc1N1CC[C@@H](O)C1)c1cnn2cccnc12` [Example 103, (R)-N-(5-(3-hydroxypyrrolidin-1-yl)-2-morpholinothiazolo[4,5-b]pyridin-6-yl)pyrazolo[1,5-a]pyrimidine-3-carboxamide hydrochloride], the inhibition at 0.1 µM worked out at 92% and the inhibition at 1 µM amounted to 97%.

As for `O=C(Nc1cc2sc(N3CCOCC3)nc2nc1N1CCCCC1)c1cccc(N2CCC(CO)CC2)n1` [Example 32, 6-(4-(hydroxymethyl)piperidin-1-yl)-N-(2-morpholino-5-(piperidin-1-yl)thiazolo[4,5-b]pyridin-6-yl)picolinamide], the inhibition at 0.1 µM stood at 93% and the inhibition at 1 µM came out at 95%.

With `O=C(Nc1cc2sc(N3CCOCC3)nc2nc1N1CCC[C@@H](O)C1)c1cccc(N2CCCCCC2)n1` [Example 39, (R)-6-(azepan-1-yl)-N-(5-(3-hydroxypiperidin-1-yl)-2-morpholinothiazolo[4,5-b]pyridin-6-yl)picolinamide], the inhibition at 0.1 µM was found to be 83% and the inhibition at 1 µM is 98%.

As for `O=C(Nc1cc2sc(N3CCOCC3)nc2nc1C1CC1)c1cncc(N2CCC(O)C2)n1` (centres unmarked) [Example 50, N-(5-cyclopropyl-2-morpholinothiazolo[4,5-b]pyridin-6-yl)-6-(3-hydroxypyrrolidin-1-yl)pyrazine-2-carboxamide], the inhibition at 0.1 µM was 67% and the inhibition at 1 µM is 95%.

On to `O=C(Nc1cc2sc(N3CCOCC3)nc2nc1N1CCCCC1)c1cccc(N2C3CCC2CC(O)C3)n1` (centres unmarked) [Example 81, 6-(3-hydroxy-8-azabicyclo[3.2.1]octan-8-yl)-N-(2-morpholino-5-(piperidin-1-yl)thiazolo[4,5-b]pyridin-6-yl)picolinamide], for which the inhibition at 0.1 µM came out at 88% and the inhibition at 1 µM amounted to 94%.

For `Nc1ccc(-c2cccc(C(=O)Nc3cc4oc(N5CCOCC5)nc4nc3N3CC[C@@H](O)C3)n2)cn1` [Example 90, (R)-6′-amino-N-(5-(3-hydroxypyrrolidin-1-yl)-2-morpholinooxazolo[4,5-b]pyridin-6-yl)-[2,3′-bipyridine]-6-carboxamide hydrochloride], the inhibition at 0.1 µM stood at 87% and the inhibition at 1 µM came out at 97%.

Take `Nc1cc(-c2cccc(C(=O)Nc3cc4sc(N5CCOCC5)nc4nc3C3CC3)n2)ccn1` [Example 52, 2′-amino-N-(5-cyclopropyl-2-morpholinothiazolo[4,5-b]pyridin-6-yl)-[2,4′-bipyridine]-6-carboxamide]: the inhibition at 0.1 µM came to 95% and the inhibition at 1 µM came out at 96%.
